Source: patent publication US20240150293A1, “SPIROCYCLOHEXANE DERIVATIVES, PHARMACEUTICAL COMPOSITIONS CONTAINING THEM AND THEIR USES AS ANTI-APOPTOTIC INHIBITORS” (LES LABORATOIRES SERVIER, priority 2021, published 2024)
Where two headings read alike, the source gives them in different places.

What was measured:
[1] = target: Cy5-labelled Mcl1 (amino acids 171-321) C286S protein (UniProtKB Q07820) (Homo sapiens (Human), UniProt Q07820, C286S); test: Inhibition of Mcl-1 by the fluorescence quenching assay (Example A, Method B); type: binding
Method in brief: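 Cy5-labelled Mcl1 171-321 C286S (1 nM) quenched by TQ5WS-labelled PUMA peptide (10, 20 or 400 nM); displacement raises fluorescence (Ex 620/Em 680 nm). Buffer 10 mM HEPES, 150 mM NaCl, 0.05% Tween 20, pH 7.4, 5% DMSO; 2 h at room temperature, 11-point curves, IC50 converted to Ki (cKi/eKi).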

[2] = tested on: H929 multiple myeloma tumor line; test: In vitro cytotoxicity, MTT assay (Example B, Method A); type: cell-based; details: Homo sapiens, NCI-H929, 48 h, H929 cells, 48 hours exposure, read-out: C50
Procedure: The cytotoxicity studies were carried out on the H929 multiple myeloma tumor line.
The cells are distributed onto microplates and exposed to the test compounds for 48 hours. The cell viability is then quantified by a colorimetric assay, the Microculture Tetrazolium Assay (Carmichael et al, Cancer Res. 1987, 47, 939-942).
The results are expressed in C50 which means concentration corresponding to […] of effect/inhibition.

[3] = tested on: AMO-1 multiple myeloma xenograft; test: Quantification of the cleaved form of PARP in vivo, per os (Example C); set-up: species or system SCID mice; details: single dose per os, tumors recovered 16 hours after dosing
Procedure: (§1) The ability of the compounds of the invention to induce apoptosis was evaluated in vivo using the AMO-1 multiple myeloma xenograft.
1×10^7 cells were subcutaneously grafted into immunosuppressed SCID mice. 12-14 days later, when tumors had reached the appropriate volume, mice (3 per group) were treated once with the various compounds (per os, HEC 1%/Tween 80 99:1). Tumor samples were recovered 16 hours after dosing and lysed. Cleared lysates were used for cleaved PARP quantification (as a marker of apoptosis induction) using the Meso Scale Discovery (MSD) Elisa platform test. Results are expressed as the ratio between cleaved PARP in treated mice over control mice.

[4] = tested on: AMO-1 multiple myeloma xenografts; test: Anti-tumor activity in vivo (Example D); set-up: species or system SCID mice
Procedure: The anti-tumor activity of the compounds of the invention was evaluated using AMO-1 multiple myeloma xenografts.
1×10^7 cells were subcutaneously grafted into immunosuppressed SCID mice. 7-10 days later, when the tumor mass had reached an average volume of about 150 mm^3, mice were treated with the various compounds once a week for 2 weeks (per os, HEC 1%/Tween 80 99:1). Tumor size was measured three times per week using electronic calipers.
At the end of the treatment cycle (d9), tumor growth inhibition (TGI) was calculated using the formula: […]
wherein DTV (Delta Tumor Volume) at Dx was calculated as follows: […]
(Tumor Volume at Dx)−(Tumor Volume at Randomization).

NCI-H929 cell lines = test: In vitro cytotoxicity, CellTiter-Glo (CTG) assay (Example B, Method B); type: cell-based; details: Homo sapiens, NCI-H929, 48 h, NCI-H929 cells, 48 h incubation, read-out: C50
Method in brief: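 NCI-H929 cells exposed to an 11-point compound series from 10 mM DMSO stocks (top final 30 μM) for 48 h at 37° C., 5% CO2. Viability measured as ATP by CellTiter-Glo luminescence; C50 is the concentration giving 50% cellular viability.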

[5] = tested on: AMO-1 multiple myeloma xenograft; test: Quantification of the cleaved form of PARP in vivo, IV (Example E); set-up: species or system SCID mice; details: single dose
Procedure: as §1
1×10^7 cells were subcutaneously grafted into immunosuppressed SCID mice. 12-14 days later, when tumors had reached the appropriate volume, mice (3 per group) were treated once with the various compounds (IV). Tumor samples were recovered 6 or 16 hours after dosing and lysed. Cleared lysates were used for cleaved PARP quantification (as a marker of apoptosis induction) using the Meso Scale Discovery (MSD) Elisa platform test. Results are expressed as the ratio between cleaved PARP in treated mice over control mice.

[6] = 60 mpk per os once a week for 2 weeks
[7] = 120 mpk per os once a week for 2 weeks
[8] = 30 mpk per os once a week for 2 weeks

Sequence of Cy5-labelled Mcl1 (amino acids 171-321) C286S protein (Q07820 171-321 C286S): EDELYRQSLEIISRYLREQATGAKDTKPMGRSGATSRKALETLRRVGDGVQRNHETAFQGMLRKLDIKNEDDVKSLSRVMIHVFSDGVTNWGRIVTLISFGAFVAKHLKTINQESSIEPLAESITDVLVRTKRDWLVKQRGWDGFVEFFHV

| SMILES | Ki ([1]; Ki determined from IC50) [nM] | IC50 [2] [nM] | Cleaved PARP (fold to control) ([3]; 120 mpk) | % TGI (d9) [4, 6] [%] | % TGI (d9) [4, 7] [%] | Ki [1] [nM] | IC50 (NCI-H929 cell lines) [nM] | Cleaved PARP (fold to control) ([3]; 30 mpk) | Cleaved PARP (fold to control) ([3]; 60 mpk) | % TGI (d9) [4, 8] [%] | Cleaved PARP (fold to control) ([5]; 15 mpk IV, time-point 6 h) | Cleaved PARP (fold to control) ([5]; 30 mpk IV, time-point 6 h) | Cleaved PARP (fold to control) ([5]; 30 mpk IV, time-point 16 h) | Cleaved PARP (fold to control) ([5]; 7.5 mpk IV, time-point 6 h) |
| --- | --- | --- | --- | --- | --- | --- | --- | --- | --- | --- | --- | --- | --- | --- |
| C[C@@H](COc1ccnc2c1[C@H](C)CCC2)CN1Cc2cc(F)ccc2[C@]12CC[C@@](Nc1ccc(F)c(Cl)c1)(C(=O)O)CC2 [Example 42, (1s,4S)-4-(3-chloro-4-fluoroanilino)-5′-fluoro-2′-[(2R)-2-methyl-3-{[(5R)-5-methyl-5,6,7,8-tetrahydroquinolin-4-yl]oxy}propyl]-2′,3′-dihydrospiro[cyclohexane-1,1′-isoindole]-4-carboxylic acid] | 0.294 | 33.9 | 5 fold to control | 25.8 | 114.1 | – | – | – | – | – | – | – | – | – |
| COc1ccc2c(c1)[C@]1(CC[C@@](Nc3cccc(Cl)c3)(C(=O)O)CC1)[C@@H](C[C@@H](C)COc1ccnc3c1[C@H](C)CCC3)C2 [Example 781, (1r,2′S,4S)-4-(3-chloroanilino)-6′-methoxy-2′-[(2R)-2-methyl-3-{[(5R)-5-methyl-5,6,7,8-tetrahydroquinolin-4-yl]oxy}propyl]-2′,3′-dihydrospiro[cyclohexane-1,1′-indene]-4-carboxylic acid] | – | – | – | 107.8 | – | 0.234 | 82.3 | 11.6 fold to control | 4.5 fold to control | 76.4 | – | – | – | – |
| CCOc1ccc2c(c1)[C@]1(CC[C@@](Nc3cccc(Cl)c3)(C(=O)O)CC1)[C@@H](C[C@@H](C)COc1ccnc3c1[C@H](C)CCC3)C2 [Example 784, (1r,2′S,4S)-4-(3-chloroanilino)-6′-ethoxy-2′-[(2R)-2-methyl-3-{[(5R)-5-methyl-5,6,7,8-tetrahydroquinolin-4-yl]oxy}propyl]-2′,3′-dihydrospiro[cyclohexane-1,1′-indene]-4-carboxylic acid] | – | – | – | 112 | – | 0.0801 | 106 | – | – | 103.6 | 227.5 fold to control | 174.2 fold to control | 129.9 fold to control | – |
| COCCOc1ccc2c(c1)[C@]1(CC[C@@](Nc3cccc(Cl)c3)(C(=O)O)CC1)[C@@H](C[C@@H](C)COc1ccnc3c1[C@H](C)CCC3)C2 [Example 794, (1r,2′S,4S)-4-(3-chloroanilino)-6′-(2-methoxyethoxy)-2′-[(2R)-2-methyl-3-{[(5R)-5-methyl-5,6,7,8-tetrahydroquinolin-4-yl]oxy}propyl]-2′,3′-dihydrospiro[cyclohexane-1,1′-indene]-4-carboxylic acid] | – | – | 12.1 fold to control | 70.2 | 51.5 | 0.213 | 44.5 | – | 6.8 fold to control | – | – | – | – | – |
| COc1cc2c(cc1Cl)C[C@H](C[C@@H](C)COc1ccnc3c1[C@H](C)CCC3)[C@]21CC[C@](Nc2cccc(Cl)c2)(C(=O)O)CC1 [Example 815, (1r,2′S,4S)-5′-chloro-4-(3-chloroanilino)-6′-methoxy-2′-[(2R)-2-methyl-3-{[(5R)-5-methyl-5,6,7,8-tetrahydroquinolin-4-yl]oxy}propyl]-2′,3′-dihydrospiro[cyclohexane-1,1′-indene]-4-carboxylic acid] | – | – | 4.6 fold to control | 18.7 | 66.8 | 0.251 | 87.7 | – | 2.3 fold to control | – | – | – | – | – |
| C[C@@H](COc1ccnc2c1[C@H](C)CCC2)C[C@H]1Cc2cc3c(cc2[C@]12CC[C@@](Nc1cccc(Cl)c1)(C(=O)O)CC2)OCCO3 [Example 838, (1r,4S,7′S)-4-(3-chloroanilino)-7′-[(2R)-2-methyl-3-{[(5R)-5-methyl-5,6,7,8-tetrahydroquinolin-4-yl]oxy}propyl]-2′,3′,7′,8′-tetrahydrospiro[cyclohexane-1,6′-indeno[5,6-b][1,4]dioxine]-4-carboxylic acid] | – | – | – | 129.2 | – | 0.0337 | 21.6 | 15 fold to control | 7.8 fold to control | – | – | – | – | – |
| C[C@@H](COc1ccnc2c1[C@H](C)CCC2)C[C@H]1Cc2cc3c(cc2[C@]12CC[C@@](Nc1ccc(F)c(Cl)c1)(C(=O)O)CC2)OCO3 [Example 845, (1r,4S,6′S)-4-(3-chloro-4-fluoroanilino)-6′-[(2R)-2-methyl-3-{[(5R)-5-methyl-5,6,7,8-tetrahydroquinolin-4-yl]oxy}propyl]-6′,7′-dihydro-2′H-spiro[cyclohexane-1,5′-indeno[5,6-d][1,3]dioxole]-4-carboxylic acid] | – | – | – | 128.3 | – | 0.0736 | 38.3 | – | – | 88.2 | 188.7 fold to control | 158.2 fold to control | 116.4 fold to control | – |
| Cc1c(Cl)cccc1N[C@]1(C(=O)O)CC[C@]2(CC1)c1cc3c(cc1C[C@@H]2C[C@@H](C)COc1ccnc2c1[C@H](C)CCC2)OCO3 [Example 847, (1r,4S,6′S)-4-(3-chloro-2-methylanilino)-6′-[(2R)-2-methyl-3-{[(5R)-5-methyl-5,6,7,8-tetrahydroquinolin-4-yl]oxy}propyl]-6′,7′-dihydro-2′H-spiro[cyclohexane-1,5′-indeno[5,6-d][1,3]dioxole]-4-carboxylic acid] | – | – | – | – | – | 0.0847 | 64.3 | – | – | – | 215 fold to control | – | – | 185.9 fold to control |
| Cc1cc2c(cc1C)[C@]1(CC[C@@](Nc3cccc(Cl)c3)(C(=O)O)CC1)[C@@H](C[C@@H](C)COc1ccnc3c1[C@H](C)CCC3)C2 [Example 854, (1r,2′S,4S)-4-(3-chloroanilino)-5′,6′-dimethyl-2′-[(2R)-2-methyl-3-{[(5R)-5-methyl-5,6,7,8-tetrahydroquinolin-4-yl]oxy}propyl]-2′,3′-dihydrospiro[cyclohexane-1,1′-indene]-4-carboxylic acid] | – | – | 29.1 fold to control | 95.2 | 111.8 | 0.455 | 147 | 6.9 fold to control | 26.4 fold to control | 32 | – | – | – | – |
